Assay [1] concerns Adoxophyes orana fasciata. Kind of assay: Test Example 2: spray test on apple seedling against first-instar larvae of Adoxophyes orana fasciata, rate of dead pests. The format is in vivo. To be noted: 200 ppm, 30 ml sprayed over apple seedling, 7th day after application. As to the method: The formulation obtained according to Formulation Example 1 using the present invention compound (25): [drawing 138] and the comparative compound (b) described below respectively, was diluted with water so that the concentration of the present invention compound or the comparative compound came to 200 ppm. 30 ml of the diluted formulation described above was sprayed over the seedling of apple, which had been potted in plastic cup for 28 days after seeding about 15 cm height. After the sprayed solution was dried, about sixty first-instar larvae of Adoxophyes orana fasciata were set free on the apple seedling. On the 7 th day after application, the number of surviving or dyed Adoxophyes orana fasciata on the apple seedling was examined, and the rate of dead pests was calculated.

A further assay deals with Tetranychus urticae. Briefly: Test Example 1: spray test against Tetranychus urticae on brush bean, Controlling Rate. The format is in vivo. Conditions: 200 ppm, 30 ml sprayed over brush bean (Phaseolus vulgaris) with female adults. The method, then: The formulation obtained according to Formulation Example 1 using the present invention compounds (1) to (30) and the comparative compound (a) described below respectively, was diluted with water so that the concentration of the present invention compound or the comparative compound came to 200 ppm. About twenty female adults of Tetranychus urticae were set free on brush bean (Phaseolus vulgaris) in the primary leaf stage, which had been potted in a plastic cup for 7 days after the seeding. After 1 day, a 30 ml of the diluted formulation described-above was sprayed over the plant. On the 8th and 13th day after the application, the numbers of lived Tetranychus urticae on the leaf of brush bean plant were examined, and the Controlling Rates were calculated by the following scheme. Controlling Rate=100×{1−(a number of lived Tetranychus urticae in the treatment)/(a number of lived Tetranychus urticae in the non-treatment)}

Structures are written as SMILES. A value given as a limit tells only on which side of the number the result lay.

As for `Cc1nn(C)c(Oc2ccc(Oc3ccc(C(F)(F)F)cc3)cc2)c1C=O` [comparative compound (b)], in assay [1], the “rate of dead pests” value is reported as “less than 80%”.

For `Cc1nn(C)c(Oc2ccc(Oc3ccc(C(F)(F)F)cc3)cc2)c1C=NOCc1ccccc1` [comparative compound (a)], the “Controlling Rate” value in the assay on Tetranychus urticae (8th day after the application) and in the assay on Tetranychus urticae (13th day after the application) was “less than 30%” each time.

Regarding `C=CCOc1ccc(Oc2ccc(Oc3c(C)c(C)nn3C)cc2)cc1` [present invention compound (25)], the “rate of dead pests” value in assay [1] is given as at least 90%.
